Data on 25 compounds can be found in ChEMBL document CHEMBL2203195, “Synthesis and antibacterial activity of new fluoroquinolones containing a cis- or trans-cyclohexane moiety” (2012).

SMILES strings stand for the structures. Values after ≈ are worked out from the molar mass of the structure shown. Some results are limits rather than exact numbers.

What is called MIC is the lowest concentration found to suppress growth.

Type in all cases: functional
The subject of one test is Staphylococcus aureus. Kind of test: Antibacterial activity against Staphylococcus aureus CMCC 26003 after 24 hrs by agar dilution method. The conditions noted are these: CMCC 26003, 24 h. In general terms: In agar dilution the substance is mixed into plates at graded concentrations.
The subject of the next test is Escherichia coli. Kind of test: Antibacterial activity against Escherichia coli CMCC 44103 after 24 hrs by agar dilution method. As to conditions: CMCC 44103, 24 h.
In the next test the test system is Pseudomonas aeruginosa. Briefly: Antibacterial activity against Pseudomonas aeruginosa CMCC 10104 after 24 hrs by agar dilution method. The conditions noted are these: CMCC 10104, 24 h.

As for `C[C@H]1COc2c(NC(=O)[C@H]3CC[C@@H](COc4cccc(F)c4F)CC3)c(F)cc3c(=O)c(C(=O)O)cn1c23`, the MIC against Staphylococcus aureus is 2 µg/mL (≈ 3.77 µM); in the test on Escherichia coli, more than 32 µg/mL; in the test on Pseudomonas aeruginosa, 1 µg/mL (≈ 1.89 µM).

With `Cc1cccc(C)c1OC[C@H]1CC[C@H](C(=O)Nc2c(F)cc3c(=O)c(C(=O)O)cn4c3c2OC[C@@H]4C)CC1`, the MIC against Staphylococcus aureus, in the test with Escherichia coli and with Pseudomonas aeruginosa was more than 32 µg/mL in each case.

Consider `COc1c(NC(=O)[C@H]2CC[C@H](COc3ccccc3)CC2)c(F)cc2c(=O)c(C(=O)O)cn(C3CC3)c12`, for which the MIC against Staphylococcus aureus, against Escherichia coli and against Pseudomonas aeruginosa was more than 32 µg/mL in each case.

Consider `CCn1cc(C(=O)O)c(=O)c2cc(F)c(NC(=O)[C@H]3CC[C@@H](COc4c(C)cccc4C)CC3)c(F)c21`, for which the minimum inhibitory concentration (MIC) against Staphylococcus aureus, against Escherichia coli and in the test on Pseudomonas aeruginosa was more than 32 µg/mL in each case.

Turning to `Cc1cccc(C)c1OC[C@H]1CC[C@@H](C(=O)Nc2c(F)cc3c(=O)c(C(=O)O)cn4c3c2OC[C@@H]4C)CC1`, the MIC against Staphylococcus aureus, against Escherichia coli and in the test with Pseudomonas aeruginosa was more than 32 µg/mL each time.

For `COc1c(NC(=O)[C@H]2CC[C@H](COc3ccc([N+](=O)[O-])cc3)CC2)c(F)cc2c(=O)c(C(=O)O)cn(C3CC3)c12`, the MIC against Staphylococcus aureus, with Escherichia coli and against Pseudomonas aeruginosa was more than 32 µg/mL in each case.

`CCn1cc(C(=O)O)c(=O)c2cc(F)c(NC(=O)[C@H]3CC[C@H](COc4c(C)cccc4C)CC3)c(F)c21`: the minimal inhibitory concentration (MIC) in the test on Staphylococcus aureus, in the test with Escherichia coli and in the test with Pseudomonas aeruginosa was more than 32 µg/mL in each case.

Turning to `COc1c(NC(=O)[C@H]2CC[C@@H](COc3c(C)cccc3C)CC2)c(F)cc2c(=O)c(C(=O)O)cn(C3CC3)c12`, the minimal inhibitory concentration (MIC) against Staphylococcus aureus, against Escherichia coli and in the test on Pseudomonas aeruginosa was more than 32 µg/mL each time.

Turning to `CCn1cc(C(=O)O)c(=O)c2cc(F)c(N3CCNC(C)C3)c(F)c21` (stereo not given) [LOMEFLOXACIN], the MIC against Staphylococcus aureus came to 4 µg/mL (≈ 11.4 µM); with Escherichia coli, 2 µg/mL (≈ 5.69 µM); in the test with Pseudomonas aeruginosa, 8 µg/mL (≈ 22.8 µM).

As for `C[C@H]1COc2c(NC(=O)[C@H]3CC[C@H](COc4cccc(F)c4F)CC3)c(F)cc3c(=O)c(C(=O)O)cn1c23`, the MIC was 32 µg/mL (≈ 60.3 µM) in the test on Staphylococcus aureus, more than 32 µg/mL against Escherichia coli and more than 32 µg/mL in the test with Pseudomonas aeruginosa.

Turning to `C[C@H]1COc2c(NC(=O)[C@H]3CC[C@@H](COc4ccc([N+](=O)[O-])cc4)CC3)c(F)cc3c(=O)c(C(=O)O)cn1c23`, the MIC in the test on Staphylococcus aureus, in the test on Escherichia coli and against Pseudomonas aeruginosa was more than 32 µg/mL in each case.

Regarding `COc1c(NC(=O)[C@H]2CC[C@@H](COc3cccc(F)c3F)CC2)c(F)cc2c(=O)c(C(=O)O)cn(C3CC3)c12`, the MIC with Staphylococcus aureus, with Escherichia coli and against Pseudomonas aeruginosa was more than 32 µg/mL throughout.

As for `CCn1cc(C(=O)O)c(=O)c2cc(F)c(NC(=O)[C@H]3CC[C@@H](COc4cccc(F)c4F)CC3)c(F)c21`, the MIC against Staphylococcus aureus, in the test with Escherichia coli and with Pseudomonas aeruginosa was more than 32 µg/mL each time.

For `COc1c(NC(=O)[C@H]2CC[C@@H](COc3ccc([N+](=O)[O-])cc3)CC2)c(F)cc2c(=O)c(C(=O)O)cn(C3CC3)c12`, the MIC in the test with Staphylococcus aureus came to 1 µg/mL (≈ 1.81 µM); with Escherichia coli, 0.25 µg/mL (≈ 0.452 µM); in the test with Pseudomonas aeruginosa, 2 µg/mL (≈ 3.61 µM).

With `COc1c(NC(=O)[C@H]2CC[C@@H](COc3ccccc3)CC2)c(F)cc2c(=O)c(C(=O)O)cn(C3CC3)c12`, the values for the MIC against Staphylococcus aureus, in the test on Escherichia coli and in the test with Pseudomonas aeruginosa were 4 µg/mL (≈ 7.87 µM), more than 32 µg/mL and more than 32 µg/mL, respectively.

As for `CCn1cc(C(=O)O)c(=O)c2cc(F)c(NC(=O)[C@H]3CC[C@H](COc4ccccc4)CC3)c(F)c21`, the MIC against Staphylococcus aureus, with Escherichia coli and in the test on Pseudomonas aeruginosa was more than 32 µg/mL each time.

Turning to `C[C@H]1COc2c(NC(=O)[C@H]3CC[C@H](COc4ccccc4)CC3)c(F)cc3c(=O)c(C(=O)O)cn1c23`, the values for the MIC with Staphylococcus aureus, in the test with Escherichia coli and against Pseudomonas aeruginosa were more than 32 µg/mL, 16 µg/mL (≈ 32.4 µM) and more than 32 µg/mL, respectively.

`COc1c(NC(=O)[C@H]2CC[C@H](COc3cccc(F)c3F)CC2)c(F)cc2c(=O)c(C(=O)O)cn(C3CC3)c12`: the MIC against Staphylococcus aureus, in the test on Escherichia coli and against Pseudomonas aeruginosa was more than 32 µg/mL throughout.

For `CCn1cc(C(=O)O)c(=O)c2cc(F)c(NC(=O)[C@H]3CC[C@@H](COc4ccc([N+](=O)[O-])cc4)CC3)c(F)c21`, the MIC was 4 µg/mL (≈ 7.55 µM) in the test with Staphylococcus aureus, more than 32 µg/mL against Escherichia coli and more than 32 µg/mL against Pseudomonas aeruginosa.

Turning to `C[C@H]1COc2c(NC(=O)[C@H]3CC[C@@H](COc4ccccc4)CC3)c(F)cc3c(=O)c(C(=O)O)cn1c23`, the MIC is more than 32 µg/mL against Staphylococcus aureus, 8 µg/mL (≈ 16.2 µM) with Escherichia coli and more than 32 µg/mL in the test on Pseudomonas aeruginosa.

`CCn1cc(C(=O)O)c(=O)c2cc(F)c(NC(=O)[C@H]3CC[C@@H](COc4ccccc4)CC3)c(F)c21`: the MIC against Staphylococcus aureus, in the test with Escherichia coli and in the test with Pseudomonas aeruginosa was more than 32 µg/mL each time.

On to `CCn1cc(C(=O)O)c(=O)c2cc(F)c(NC(=O)[C@H]3CC[C@H](COc4ccc([N+](=O)[O-])cc4)CC3)c(F)c21`, for which the MIC in the test on Staphylococcus aureus, against Escherichia coli and against Pseudomonas aeruginosa was more than 32 µg/mL in each case.

Regarding `COc1c(NC(=O)[C@H]2CC[C@H](COc3c(C)cccc3C)CC2)c(F)cc2c(=O)c(C(=O)O)cn(C3CC3)c12`, the MIC against Staphylococcus aureus, in the test with Escherichia coli and in the test on Pseudomonas aeruginosa was more than 32 µg/mL throughout.

Turning to `C[C@H]1COc2c(NC(=O)[C@H]3CC[C@H](COc4ccc([N+](=O)[O-])cc4)CC3)c(F)cc3c(=O)c(C(=O)O)cn1c23`, the MIC in the test on Staphylococcus aureus, with Escherichia coli and in the test on Pseudomonas aeruginosa was more than 32 µg/mL in each case.

Turning to `CCn1cc(C(=O)O)c(=O)c2cc(F)c(NC(=O)[C@H]3CC[C@H](COc4cccc(F)c4F)CC3)c(F)c21`, the MIC in the test on Staphylococcus aureus, against Escherichia coli and in the test on Pseudomonas aeruginosa was more than 32 µg/mL throughout.
